Laboratory results taken from PubChem BioAssay (NCI).
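Each compound was tested at five concentrations against cells in 96-well plates for 48 hours. The concentration for 50% growth inhibition is given as GI50. Definition used: TGI = concentration required for complete inhibition of growth.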

Legend:
Assay in all cases: DTP human tumour cell line panel, 48 h
[1] = system: A498 renal
[2] = system: A549 NSCLC
[3] = system: ACHN renal
[4] = system: BT-549 breast
[5] = system: CAKI-1 renal
[6] = system: CCRF-CEM leukemia
[7] = system: EKVX NSCLC
[8] = system: HCC-2998 colon
[9] = system: HCT-116 colon
[10] = system: HCT-15 colon
[11] = system: HL-60(TB) leukemia
[12] = system: HOP-62 NSCLC
[13] = system: HOP-92 NSCLC
[14] = system: HS 578T breast
[15] = system: IGROV1 ovarian
[16] = system: K-562 leukemia
[17] = system: MCF7 breast
[18] = system: MOLT-4 leukemia
[19] = system: NCI-H226 lung
[20] = system: NCI-H23 lung
[21] = system: NCI-H460 lung
[22] = system: NCI-H522 lung
[23] = system: OVCAR-3 ovarian
[24] = system: OVCAR-8 ovarian
[25] = system: PC-3 prostate
[26] = system: RXF 393 renal
[27] = system: SF-268 CNS
[28] = system: SF-295 CNS
[29] = system: SF-539 CNS
[30] = system: SK-MEL-2 melanoma
[31] = system: SK-MEL-5 melanoma
[32] = system: SK-OV-3 ovarian
[33] = system: SR leukemia
[34] = system: T-47D breast
[35] = system: U251 CNS
[36] = system: UACC-62 melanoma
[37] = system: 786-0 renal
[38] = system: COLO 205 colon
[39] = system: DU-145 prostate
[40] = system: HT29 colon
[41] = system: KM12 colon
[42] = system: LOX IMVI melanoma
[43] = system: M14 melanoma
[44] = system: MALME-3M melanoma
[45] = system: MDA-MB-435
[46] = system: NCI/ADR-RES ovarian
[47] = system: RPMI-8226 leukemia
[48] = system: SK-MEL-28 melanoma
[49] = system: SNB-19 CNS
[50] = system: SNB-75 CNS
[51] = system: SW-620 colon
[52] = system: TK-10 renal
[53] = system: UACC-257 melanoma
[54] = system: UO-31 renal

COc1cc(/C=C/C(=O)c2ccc(Nc3nc(NCCO)nc(N4CCOCC4)n3)cc2)cc(OC)c1OC
GI50 [1]: 1.32 µM
TGI [1]: 5.01 µM
GI50 [2]: 2.18 µM
TGI [2]: > 100 µM
GI50 [3]: 1.95 µM
TGI [3]: 5.61 µM
GI50 [4]: 1.35 µM
TGI [4]: 2.86 µM
GI50 [5]: 2.09 µM
TGI [5]: 11 µM
GI50 [6]: 0.935 µM
TGI [6]: 3.54 µM
GI50 [7]: 2.83 µM
TGI [7]: > 100 µM
GI50 [8]: 1.8 µM
TGI [8]: 3.3 µM
GI50 [9]: 1.3 µM
TGI [9]: 3 µM
GI50 [10]: 1.43 µM
TGI [10]: 4.4 µM
GI50 [11]: 1.79 µM
TGI [11]: 4.78 µM
GI50 [12]: 2.72 µM
TGI [12]: 7.75 µM
GI50 [13]: 1.61 µM
TGI [13]: 7.4 µM
GI50 [14]: 1.65 µM
TGI [14]: 5.46 µM
GI50 [15]: 1.9 µM
TGI [15]: 4.59 µM
GI50 [16]: 0.783 µM
TGI [16]: 7.56 µM
GI50 [17]: 1.17 µM
TGI [17]: 2.77 µM
GI50 [18]: 1.19 µM
TGI [18]: 4.37 µM
GI50 [19]: 2.15 µM
TGI [19]: 5.18 µM
GI50 [20]: 2.03 µM
TGI [20]: 5.17 µM
GI50 [21]: 1.58 µM
TGI [21]: 3.47 µM
GI50 [22]: 1.59 µM
TGI [22]: 4.11 µM
GI50 [23]: 1.69 µM
TGI [23]: 4.26 µM
GI50 [24]: 2.2 µM
TGI [24]: > 100 µM
GI50 [25]: 2.14 µM
TGI [25]: 7.18 µM
GI50 [26]: 1.46 µM
TGI [26]: 3.23 µM
GI50 [27]: 1.88 µM
TGI [27]: 5.54 µM
GI50 [28]: 3.03 µM
TGI [28]: > 100 µM
GI50 [29]: 1.63 µM
TGI [29]: 3.16 µM
GI50 [30]: 1.71 µM
TGI [30]: 3.73 µM
GI50 [31]: 1.76 µM
TGI [31]: 3.28 µM
GI50 [32]: 3.05 µM
TGI [32]: 27.5 µM
GI50 [33]: 0.422 µM
TGI [33]: 3.22 µM
GI50 [34]: 1.8 µM
TGI [34]: 6.68 µM
GI50 [35]: 1.38 µM
TGI [35]: 2.97 µM
GI50 [36]: 1.54 µM
TGI [36]: 3.2 µM

CC[N+](CC)=c1cc2oc3cc(N(C)C)ccc3nc-2cc1C
GI50 [37]: 5.12 µM
TGI [37]: > 100 µM
GI50 [1]: 1.54 µM
TGI [1]: 30.8 µM
GI50 [2]: 1.71 µM
TGI [2]: 16 µM
GI50 [3]: 10.8 µM
TGI [3]: > 100 µM
GI50 [4]: 0.932 µM
TGI [4]: 13.6 µM
GI50 [5]: 3.07 µM
TGI [5]: 19.6 µM
GI50 [6]: 2.3 µM
TGI [6]: 65.4 µM
GI50 [38]: 0.66 µM
TGI [38]: 2.27 µM
GI50 [39]: 4.36 µM
TGI [39]: 33.4 µM
GI50 [7]: 1.53 µM
TGI [7]: 17.3 µM
GI50 [9]: 0.563 µM
TGI [9]: 4.85 µM
GI50 [10]: 2.75 µM
TGI [10]: > 100 µM
GI50 [11]: 0.313 µM
TGI [11]: 2.83 µM
GI50 [12]: 1.98 µM
TGI [12]: 37.1 µM
GI50 [13]: 1.15 µM
TGI [13]: 8.19 µM
GI50 [14]: 10.5 µM
TGI [14]: 64.2 µM
GI50 [40]: 3.47 µM
TGI [40]: > 100 µM
GI50 [16]: 1.78 µM
TGI [16]: > 100 µM
GI50 [41]: 0.975 µM
TGI [41]: 14.7 µM
GI50 [42]: 1.71 µM
TGI [42]: 12.3 µM
GI50 [43]: 0.471 µM
TGI [43]: 2.65 µM
GI50 [44]: 1.53 µM
TGI [44]: 5.33 µM
GI50 [17]: 0.352 µM
TGI [17]: 2.48 µM
GI50 [45]: 2.15 µM
TGI [45]: 17.7 µM
GI50 [19]: 6.76 µM
TGI [19]: 47.2 µM
GI50 [20]: 0.482 µM
TGI [20]: 6.79 µM
GI50 [21]: 1.86 µM
TGI [21]: 73.6 µM
GI50 [46]: 4.23 µM
TGI [46]: > 100 µM
GI50 [23]: 0.296 µM
TGI [23]: 1.02 µM
GI50 [24]: 2.11 µM
TGI [24]: 9.93 µM
GI50 [25]: 0.454 µM
TGI [25]: > 100 µM
GI50 [47]: 0.628 µM
TGI [47]: 10.1 µM
GI50 [26]: 15.2 µM
TGI [26]: 90.1 µM
GI50 [27]: 1.18 µM
TGI [27]: 3.48 µM
GI50 [28]: 1.93 µM
TGI [28]: 16.8 µM
GI50 [29]: 0.39 µM
TGI [29]: 13.1 µM
GI50 [30]: 0.519 µM
TGI [30]: 4.82 µM
GI50 [48]: 8.4 µM
TGI [48]: 42.1 µM
GI50 [31]: 1.04 µM
TGI [31]: 5.69 µM
GI50 [32]: 4.45 µM
TGI [32]: 98.7 µM
GI50 [49]: 2.9 µM
TGI [49]: > 100 µM
GI50 [50]: 2.59 µM
TGI [50]: 11.1 µM
GI50 [33]: 2.74 µM
TGI [33]: 75 µM
GI50 [51]: 0.791 µM
TGI [51]: 23 µM
GI50 [34]: 0.563 µM
TGI [34]: > 100 µM
GI50 [52]: 1.94 µM
TGI [52]: 8.38 µM
GI50 [35]: 0.538 µM
TGI [35]: 6.06 µM
GI50 [53]: 0.306 µM
TGI [53]: 1.56 µM
GI50 [36]: 3.24 µM
TGI [36]: 31.1 µM
GI50 [54]: 3.76 µM
TGI [54]: 41.9 µM
